Results: patent US6274715A, “Tricyclic erythromycin derivatives” (priority 1997, dated 2001)
≈ marks a conversion by molar mass, not a printed value.

Experiments:
Format in all cases: cell-based
EN[…] ATCC 8043 = experiment: In vitro antibacterial activity, MIC, BHI agar dilution; settings: E. faecium ATCC 8043, unit assumed
In short: (§1)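 MIC was read visually as the lowest drug concentration showing no growth, a slight haze or sparsely isolated colonies relative to a compound-free BHI plate. Plates held serial aqueous dilutions in BHI agar, were spot-inoculated with 1:100 (or 1:10) culture dilutions and incubated 20 to 24 hours at 35-37° C.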

M[…] ATCC 9341 = experiment: as above; settings: M. luteus ATCC 9341, unit assumed
In short: as §1

STR[…] 508 = experiment: as above; settings: S. agalactiae CMX 508, unit assumed
In short: as §1

M[…] ATCC 4698 = experiment: as above; settings: M. luteus ATCC 4698, unit assumed
In short: as §1

[1] = test system: PSEUDOMONAS AERUGINOSA K799/WT; experiment: as above; settings: P. aeruginosa K799/WT, unit assumed
[2] = test system: PSEUDOMONAS AERUGINOSA 5007; experiment: as above; settings: P. aeruginosa 5007, unit assumed
ESCHERICHIA COLI H560 = experiment: as above; settings: E. coli H560, unit assumed
[3] = test system: PSEUDOMONAS AERUGINOSA DPHD-2862; experiment: as above; settings: P. aeruginosa DPHD-2862, unit assumed
[4] = test system: STAPHYLOCOCCUS AUREUS ATCC 6538P; experiment: as above; settings: S. aureus ATCC 6538P, 35-37° C., 20 to 24 hours, unit assumed
ESCHERICHIA COLI SS = experiment: as above; settings: E. coli SS, unit assumed
[5] = test system: STAPHYLOCOCCUS AUREUS 1775; experiment: as above; settings: S. aureus 1775, unit assumed
[6] = test system: PROVIDENCIA STUARTII CMX 640; settings: P. stuartii CMX 640; BHI agar; unit assumed
[7] = test system: STREPTOCOCCUS PYOGENES EES61; experiment: In vitro antibacterial activity, MIC, BHI agar dilution; settings: S. pyogenes EES61, unit assumed
PSEUDOMONAS CEPACIA 296I = experiment: as above; settings: P. cepacia 296I, unit assumed
ESCHERICHIA COLI DC-2 = experiment: as above; settings: E. coli DC-2, unit assumed
[8] = test system: PSEUDOMONAS AERUGINOSA BMH10; experiment: as above; settings: P. aeruginosa BMH10, unit assumed
[9] = test system: STAPHYLOCOCCUS AUREUS NCTC10649M; experiment: as above; settings: S. aureus NCTC10649M, unit assumed
[10] = test system: PSEUDOMONAS AERUGINOSA K799/61; experiment: as above; settings: P. aeruginosa K799/61, unit assumed
[11] = test system: STREPTOCOCCUS BOVIS A-5169; experiment: as above; settings: S. bovis A-5169, unit assumed
CANDIDA ALBICANS CCH 442 = experiment: as above; settings: C. albicans CCH 442, unit assumed
[12] = test system: STAPHYLOCOCCUS AUREUS CMX 553; experiment: as above; settings: S. aureus CMX 553, unit assumed
[13] = test system: STAPHYLOCOCCUS AUREUS A-5278; experiment: as above; settings: S. aureus A-5278, unit assumed
[14] = test system: STAPHYLOCOCCUS AUREUS CMX 642A; experiment: as above; settings: S. aureus CMX 642A, unit assumed
[15] = test system: STAPHYLOCOCCUS EPIDERMIDIS 3519; settings: S. epidermidis 3519; BHI agar; unit assumed
ESCHERICHIA COLI KNK 437 = settings: E. coli KNK 437; BHI agar; unit assumed
ESCHERICHIA COLI JUHL = settings: E. coli JUHL; BHI agar; unit assumed
[16] = test system: ENTEROBACTER AEROGENES ATCC 13048; experiment: In vitro antibacterial activity, MIC, BHI agar dilution; settings: E. aerogenes ATCC 13048, unit assumed
[17] = test system: PSEUDOMONAS AERUGINOSA DPHD-5263; experiment: as above; settings: P. aeruginosa DPHD-5263, unit assumed
[18] = test system: STREPTOCOCCUS PYOGENES 930; experiment: as above; settings: S. pyogenes 930, unit assumed
[19] = test system: MYCOBACTERIUM SMEGMATIS ATCC 114; experiment: as above; settings: M. smegmatis ATCC 114, unit assumed
[20] = test system: KLEBSIELLA PNEUMONIAE ATCC 8045; experiment: as above; settings: K. pneumoniae ATCC 8045, unit assumed
[21] = test system: STAPHYLOCOCCUS AUREUS A5177; experiment: as above; settings: S. aureus A5177, unit assumed
[22] = test system: STREPTOCOCCUS PYOGENES PIU 2548; experiment: as above; settings: S. pyogenes PIU 2548, unit assumed

| Compound | MIC (EN[…] ATCC 8043) | MIC (M[…] ATCC 9341) | MIC (STR[…] 508) | MIC (M[…] ATCC 4698) | MIC [1] | MIC [2] | MIC (ESCHERICHIA COLI H560) | MIC [3] | MIC [4] | MIC [5] | MIC [6] | MIC [7] | MIC (PSEUDOMONAS CEPACIA 296I) | MIC (ESCHERICHIA COLI DC-2) | MIC [8] | MIC [9] | MIC [10] | MIC [11] | MIC (CANDIDA ALBICANS CCH 442) | MIC [12] | also measured |
| --- | --- | --- | --- | --- | --- | --- | --- | --- | --- | --- | --- | --- | --- | --- | --- | --- | --- | --- | --- | --- | --- |
| CC[C@H]1OC(=O)[C@H](C)C(=O)[C@H](C)[C@@H](O[C@@H]2O[C@H](C)C[C@H](N(C)C)[C@H]2O)[C@](C)(OC)C[C@@H](C)C2=N[C@H](COCc3ccncc3)CN3C(=O)O[C@@]1(C)[C@H]3[C@H]2C [Example 77] | 0.05 µg/mL (≈ 0.0659 µM) | 0.05 µg/mL (≈ 0.0659 µM) | 0.01 µg/mL (≈ 0.0132 µM) | 0.39 µg/mL (≈ 0.514 µM) | 100 µg/mL (≈ 132 µM) | > 100 µg/mL | 50 µg/mL (≈ 65.9 µM) | > 100 µg/mL | 0.39 µg/mL (≈ 0.514 µM) | > 100 µg/mL | > 100 µg/mL | < 0.005 µg/mL | > 100 µg/mL | 100 µg/mL (≈ 132 µM) | > 100 µg/mL | 0.39 µg/mL (≈ 0.514 µM) | 1.56 µg/mL (≈ 2.06 µM) | ≤ 0.005 µg/mL | > 100 µg/mL | 0.39 µg/mL (≈ 0.514 µM) | MIC (ESCHERICHIA COLI SS): 0.39 µg/mL (≈ 0.514 µM); MIC [13]: > 100 µg/mL; MIC [14]: 0.39 µg/mL (≈ 0.514 µM); MIC [15]: 0.39 µg/mL (≈ 0.514 µM); MIC (ESCHERICHIA COLI KNK 437): > 100 µg/mL; MIC (ESCHERICHIA COLI JUHL): > 100 µg/mL; MIC [16]: > 100 µg/mL; MIC [17]: > 100 µg/mL; MIC [18]: > 100 µg/mL; MIC [19]: 0.78 µg/mL (≈ 1.03 µM); MIC [20]: > 100 µg/mL; MIC [21]: 0.2 µg/mL (≈ 0.264 µM) |
| CC[C@H]1OC(=O)[C@H](C)C(=O)[C@H](C)[C@@H](O[C@@H]2O[C@H](C)C[C@H](N(C)C)[C@H]2O)[C@](C)(OC)C[C@@H](C)C2=N[C@@H](COCc3ccncc3)CN3C(=O)O[C@@]1(C)[C@H]3[C@H]2C [Example 86] | 0.05 µg/mL (≈ 0.0659 µM) | 0.05 µg/mL (≈ 0.0659 µM) | 0.01 µg/mL (≈ 0.0132 µM) | 0.39 µg/mL (≈ 0.514 µM) | 100 µg/mL (≈ 132 µM) | > 100 µg/mL | 50 µg/mL (≈ 65.9 µM) | > 100 µg/mL | 0.39 µg/mL (≈ 0.514 µM) | > 100 µg/mL | > 100 µg/mL | < 0.005 µg/mL | > 100 µg/mL | 100 µg/mL (≈ 132 µM) | > 100 µg/mL | 0.39 µg/mL (≈ 0.514 µM) | 1.56 µg/mL (≈ 2.06 µM) | ≤ 0.005 µg/mL | > 100 µg/mL | 0.39 µg/mL (≈ 0.514 µM) | MIC (ESCHERICHIA COLI SS): 0.39 µg/mL (≈ 0.514 µM); MIC [13]: > 100 µg/mL; MIC [14]: 0.39 µg/mL (≈ 0.514 µM); MIC [15]: 0.39 µg/mL (≈ 0.514 µM); MIC (ESCHERICHIA COLI KNK 437): > 100 µg/mL; MIC (ESCHERICHIA COLI JUHL): > 100 µg/mL; MIC [16]: > 100 µg/mL; MIC [17]: > 100 µg/mL; MIC [18]: > 100 µg/mL; MIC [19]: 0.78 µg/mL (≈ 1.03 µM); MIC [20]: > 100 µg/mL; MIC [21]: 0.2 µg/mL (≈ 0.264 µM) |
| CC[C@H]1OC(=O)[C@H](C)C(=O)[C@H](C)[C@@H](O[C@@H]2O[C@H](C)C[C@H](N(C)C)[C@H]2O)[C@](C)(OC)C[C@@H](C)C2=NC3CCCCC3N3C(=O)O[C@@]1(C)[C@H]3[C@H]2C (stereo partly shown) [Example 106] | 0.05 µg/mL (≈ 0.0723 µM) | 0.05 µg/mL (≈ 0.0723 µM) | 0.02 µg/mL (≈ 0.0289 µM) | 0.39 µg/mL (≈ 0.564 µM) | 100 µg/mL (≈ 145 µM) | > 100 µg/mL | 12.5 µg/mL (≈ 18.1 µM) | > 100 µg/mL | 0.2 µg/mL (≈ 0.289 µM) | > 100 µg/mL | > 100 µg/mL | ≤ 0.005 µg/mL | 100 µg/mL (≈ 145 µM) | 25 µg/mL (≈ 36.1 µM) | 100 µg/mL (≈ 145 µM) | 0.2 µg/mL (≈ 0.289 µM) | 0.78 µg/mL (≈ 1.13 µM) | ≤ 0.005 µg/mL | > 100 µg/mL | 0.2 µg/mL (≈ 0.289 µM) | MIC (ESCHERICHIA COLI SS): 0.39 µg/mL (≈ 0.564 µM); MIC [13]: > 100 µg/mL; MIC [14]: 0.39 µg/mL (≈ 0.564 µM); MIC [15]: 0.2 µg/mL (≈ 0.289 µM); MIC (ESCHERICHIA COLI KNK 437): 25 µg/mL (≈ 36.1 µM); MIC (ESCHERICHIA COLI JUHL): 25 µg/mL (≈ 36.1 µM); MIC [16]: 50 µg/mL (≈ 72.3 µM); MIC [17]: 100 µg/mL (≈ 145 µM); MIC [18]: > 100 µg/mL; MIC [19]: 3.1 µg/mL (≈ 4.48 µM); MIC [20]: 100 µg/mL (≈ 145 µM); MIC [21]: 0.2 µg/mL (≈ 0.289 µM) |
| CC[C@H]1OC(=O)[C@H](C)C(=O)[C@H](C)[C@@H](O[C@@H]2O[C@H](C)C[C@H](N(C)C)[C@H]2O)[C@](C)(OC)C[C@@H](C)C2=NC3CN(C(C)c4ccccc4)CC3N3C(=O)O[C@@]1(C)[C@H]3[C@H]2C (stereo partly shown) [Example 113] | 0.2 µg/mL (≈ 0.255 µM) | 0.1 µg/mL (≈ 0.128 µM) | 0.2 µg/mL (≈ 0.255 µM) | 0.78 µg/mL (≈ 0.996 µM) | > 100 µg/mL | > 100 µg/mL | 50 µg/mL (≈ 63.9 µM) | > 100 µg/mL | 0.78 µg/mL (≈ 0.996 µM) | > 100 µg/mL | > 100 µg/mL | 0.05 µg/mL (≈ 0.0639 µM) | > 100 µg/mL | > 100 µg/mL | > 100 µg/mL | 0.78 µg/mL (≈ 0.996 µM) | 3.1 µg/mL (≈ 3.96 µM) | 0.01 µg/mL (≈ 0.0128 µM) | > 100 µg/mL | 0.78 µg/mL (≈ 0.996 µM) | MIC [22]: 0.39 µg/mL (≈ 0.498 µM); MIC [13]: > 100 µg/mL; MIC [14]: 0.78 µg/mL (≈ 0.996 µM); MIC [15]: 1.56 µg/mL (≈ 1.99 µM); MIC (ESCHERICHIA COLI KNK 437): > 100 µg/mL; MIC (ESCHERICHIA COLI JUHL): > 100 µg/mL; MIC [16]: > 100 µg/mL; MIC [17]: > 100 µg/mL; MIC [18]: > 100 µg/mL; MIC [20]: > 100 µg/mL; MIC [21]: 0.39 µg/mL (≈ 0.498 µM) |
